Data published in patent EP0006845A1, “Pharmaceutical composition comprising a 5-aroyl-1-C1-5 alkyl-pyrrole-2-acetic acid compound and acetaminophen or acetylsalicylic acid” (McNeilab, Inc., priority 1978, dated 1980).

Columns and labels:
[1] = tested on: adjuvant arthritic rats; assay: adjuvant arthritis test, evaluation of paw volume of the non-injected hind paw; assay type: in vivo, female Wistar, Lewis rats; conditions: for inhibition at 50 mg/kg: Acetaminophen 50 mg/kg/day alone; for inhibition at 200 mg/kg: Acetaminophen 200 mg/kg/day alone; for inhibition at 800 mg/kg: Acetaminophen 800 mg/kg/day alone; for inhibition at 75 mg/kg: Aspirin 75 mg/kg/day alone; for inhibition at 150 mg/kg: Aspirin 150 mg/kg/day alone; for inhibition at 300 mg/kg: Aspirin 300 mg/kg/day alone
Excerpt: (§1) The efficacy of the novel combination of this invention in inhibiting inflammation and osteogenic degeneration is particularly seen in the adjuvant arthritis test. […] The adjuvant arthritis test, a test in which adjuvant arthritis which results both in inflammation and osteogenic changes is induced by Mycobacterium butvricum and in which the effect of the test compounds on each effect can be Determined, is considered to be .most useful for evaluation of compounds which may be suitable for the treatment of rheumatoid arthritis and other arthritic diseases. The test procedure, in which the effect on inflammation is determined by paw volume changes and the effect on osteogenic changes is determined by microscopic observation, is described by Wong et al, in J. Pharmacol.Exp.Ther. 185, 127-138, 1973, and is employed in the present determination of the potentiation of the antiarthritic properties of 5-aroyl-l-loweralkyl-pyrrole-2-acetic acid derivatives by aspirin or acetaminophen.
(§2) Briefly, in this procedure, adjuvant arthritis is induced in female Wistar, Lewis rats (Charles River Breeding Laboratories. Inc., Wiimington, Mass.) weighing 160-190 gm by a single subcutaneous injection of 0.75 mg Mycobacterium butyricum (Difco) into the left hind paw. The non-injected hind paw remains a normal size for the first seven days. Swelling begins to appear in the non-injected paw of the first rats on Day 8. Using the paw volume determination technique (a technique in which rat paws are dippedin mercury to the hairline and the volume of displacement determined by a modified Van Arman mercury displacement method as described in the aforementioned paper of Wong et al), the time progress curve of volume changes in the non-injected (contralateral) paw is followed. […] The mean onset time for 100 rats is found to be 11.6 days with a standard deviation of 1.9 days and the frequency of onset time values distributed normally between Days 8 and 19. Thus, determinations of antiarthritic activity are made in the period Day 11 to Day 28.
(§3) For determination of anti-inflammatory properties two different evaluations are made: (a) the evaluation of paw volume during the Phase II and Phase III periods and, (b) the evaluation of osteogenic (bone) degenration during the Phase IV period.
For evaluation of paw volume, adjuvant arthritic rats with early but significant signs of arthritis in the contralateral paw are selected on Day 11 and randomly assigned to the various groups of 10 animals in each group. All test -animals are dosed-daily (per os) with the test compound, preferably as sodium salt, or in saline for 17 days (Days 11 to 27 inclusive). Control animals are dosed with an equivalent volume of saline. The paw volumes of the non-injected paws are determined initially on Day 11 and again on Days 15, 18, 22, 25, and 28. The paw volumes are then compared with normal paw volumes of adjuvant arthitic rats previously determined from a reference curve relating normal paw volume to body weight. The volume of each individual rat which is greater than the normal volume is utilized in the analysis of the data. Values for drug treated animals are expressed as a percent inhibition of the paw volume change relative to the mean value for saline controls. Data is evaluated statistically and ED50 values with 95 percent confidence limits are calculated. The method for statistical analysis is described in detail in the aforementioned paper of Wong et al. The term "ED50" refers to the dose of drug required to produce 50 percent antagonism of the paw volume changes observed in the saline treated adjuvant arthritis controls. Suppression of paw volume changes reflects anti-inflammatory and antiarthritic activity of a test drug.

[2] = tested on: adjuvant arthritic rats; assay: adjuvant arthritis test, evaluation of bone degeneration (osteogenic changes) in the non-injected hind paw; assay type: in vivo, female Wistar, Lewis rats; conditions: for ED50: drug alone, suppression of osteogenic changes, data from several experiments pooled, read-out: ED50 and 95 percent C.L.
Excerpt: as §1, §2, §3
For evaluation of bone degenerations, normal and adjuvant arthritic rats are sacrificed under C02, after the paw volume measurements have been completed on Day 28. The hind legs are removed above the knees and skinned and the soft tissues dissected away with care to avoid injury to bone and articular structures. The leg bones are then immersed in 2 percent potassium hydroxide solution for approximately four to five days until the remaining soft tissues becomes properly macerated and/or transparent, and the bones are fully visible. The leg bones are stained with Alizarin Red (0.01 percent in 2 percent KOH) for eight hours, and then processed through increasing concentrations of glycerol in water (20, 40, 60, 80 and 100 percent) for purposes of clearing the tissues for microscopic observation. The distal end of the tibiae, the tarsals, metatarsals, phalanges, and sesamoids are evaluated under a Stereozoom Microscope (a special type of dissecting microscope, product of Bausch and Lomb).
Osteogenic changes for each bone (in 31 bone categories) in the non-injected hind paw are graded on a scale of from 0 to 10 (increasing numerical value corresponding to increasing severity of bone degeneration). A total bone degeneration score is obtained (maximum score/paw = 310 points) and then expressed as a percent score. The mean percent score (95 percent confidence limits) for saline control groups from 26 experiments (184 animals) is found to be 53.4 (50.9-55.9). Percent score values for drug treated animals are expressed as a percent inhibition relative to the mean for the saline control group. Data is evaluated statistically and ED50 values with 95 percent confidence limits are calculated.

[3] = Rattus norvegicus, 672 h, Table IX, Day 28, read-out: Percent Inhibition ± S.E. (Day 28)
[4] = Rattus norvegicus, read-out: Percent Inhibition of Paw Volume ± S.E.
[5] = Rattus norvegicus, 672 h, Day 28, read-out: Percent Inhibition ± S.E. (Day 28)
[6] = Rattus norvegicus, 672 h, Table VIII, Day 28, read-out: Percent Inhibition ± S.E. (Day 28)

## Cc1cc(CC(=O)O)n(C)c1C(=O)c1ccc(Cl)cc1 [1,4-dimethyl-5-p-chlorobenzoyl-pyrrole-2-acetic acid]
[1]; Rattus norvegicus, 672 h, Table VII, ED50 of the pyrrole compound without acetaminophen, Day 28, read-out: ED50
  ED50: 0.4 mg/kg
[1]; Rattus norvegicus, 672 h, Table VII, pyrrole compound 0.11 mg/kg/day alone, Day 28, read-out: Percent Inhibition ± S.E. (Day 28)
  inhibition at 0.11 mg/kg/day: 27.4 ± 10.1%
[1]; Rattus norvegicus, 672 h, Table VII, pyrrole compound 0.33 mg/kg/day alone, Day 28, read-out: Percent Inhibition ± S.E. (Day 28)
  inhibition at 0.33 mg/kg/day: 45 ± 6%
[1]; Rattus norvegicus, 672 h, Table VII, pyrrole compound 1.0 mg/kg/day alone, Day 28, read-out: Percent Inhibition ± S.E. (Day 28)
  inhibition at 1 mg/kg/day: 68 ± 7.8%
[1]; Rattus norvegicus, 672 h, Table VIII, ED50 of the pyrrole compound without Aspirin, Day 28, read-out: ED50
  ED50: 0.728 mg/kg
[1]; Rattus norvegicus, 672 h, Table VIII, pyrrole compound 0.125 mg/kg/day alone, Day 28, read-out: Percent Inhibition ± S.E. (Day 28)
  inhibition at 0.125 mg/kg/day: 17.5 ± 7.5%
[1]; Rattus norvegicus, 672 h, Table VIII, pyrrole compound 0.5 mg/kg/day alone, Day 28, read-out: Percent Inhibition ± S.E. (Day 28)
  inhibition at 0.5 mg/kg/day: 43.8 ± 11.8%
[1]; Rattus norvegicus, 672 h, Table VIII, pyrrole compound 2.0 mg/kg/day alone, Day 28, read-out: Percent Inhibition ± S.E. (Day 28)
  inhibition at 2 mg/kg/day: 68.2 ± 5.3%

## Cn1c(CC(=O)O)cc(Cl)c1C(=O)c1ccc(Cl)cc1 [4-chloro-5-p-chlorobenzoyl-1-nethyl-pyrrole-2-acetic acid]
[1]; Rattus norvegicus, 672 h, Table IX, ED50 of the pyrrole compound without acetaminophen, Day 28, read-out: ED50
  ED50: 0.054 mg/kg
[1]; Rattus norvegicus, 672 h, Table IX, pyrrole compound 0.02 mg/kg/day alone, Day 28, read-out: Percent Inhibition ± S.E. (Day 28)
  inhibition at 0.02 mg/kg/day: 18.6 ± 11.7%
[1]; Rattus norvegicus, 672 h, Table IX, pyrrole compound 0.06 mg/kg/day alone, Day 28, read-out: Percent Inhibition ± S.E. (Day 28)
  inhibition at 0.06 mg/kg/day: 61.3 ± 5.3%
[1]; Rattus norvegicus, 672 h, Table IX, pyrrole compound 0.18 mg/kg/day alone, Day 28, read-out: Percent Inhibition ± S.E. (Day 28)
  inhibition at 0.18 mg/kg/day: 78.9 ± 8.7%

## CC(=O)Nc1ccc(O)cc1 [Acetaminophen, acetaminophen]
[2]; Rattus norvegicus, Acetaminophen 50 mg/kg/day alone, read-out: Percent Inhibition of Bone Degeneration ± S.E.
  inhibition at 50 mg/kg: 0%
[2]; Rattus norvegicus, Acetaminophen 200 mg/kg/day alone, read-out: Percent Inhibition of Bone Degeneration ± S.E.
  inhibition at 200 mg/kg: 12.6 ± 6.5%
[2]; Rattus norvegicus, Acetaminophen 800 mg/kg/day alone, read-out: Percent Inhibition of Bone Degeneration ± S.E.
  inhibition at 800 mg/kg: 32.9 ± 3.4%
[2]; Rattus norvegicus
  ED50: 1670 mg/kg
[1]; [3]
  inhibition at 50 mg/kg: 7.6 ± 6.1%
  inhibition at 200 mg/kg: 29 ± 12.8%
  inhibition at 800 mg/kg: 75.3 ± 3.9%
[1]; [4]
  inhibition at 50 mg/kg: 0%
  inhibition at 200 mg/kg: 27.2 ± 15.5%
  inhibition at 800 mg/kg: 67.8 ± 5.7%
[1]; Rattus norvegicus, po, 672 h, drug given alone per os, Day 28, read-out: ED50 Values and 95 Percent C.L.
  ED50: 576 mg/kg
[1]; Rattus norvegicus, given alone, statistically significant difference (p<0.05) from saline treated controls, read-out: minimum effective dose (MED)
  minimal effective dose: 320 mg/kg/day
[1]; Table VII, Dose of Acetaminophen 100 alone, Day 28
  Percent Inhibition ± S.E. (Day 28): 2.7 ±17.4%
[1]; Table VII, Dose of Acetaminophen 200 alone, Day 28
  Percent Inhibition ± S.E. (Day 28): 6.6 ± 11.4%
[1]; Table VII, Dose of Acetaminophen 400 alone, Day 28
  Percent Inhibition ± S.E. (Day 28): 31.6 ± 6.1%
[1]; acetaminophen given with tolmetin
  dose of acetaminophen required to suppress the tolmetin ED50 by 50 percent: 35.3 (13.4-81.3) mg/kg/day

## CC(=O)Oc1ccccc1C(=O)O [Aspirin, acetylsalicylic acid]
[2]; Rattus norvegicus, bone degeneration, Aspirin 25 mg/kg/day alone, read-out: Percent Inhibition ± S. E.
  inhibition at 25 mg/kg: 15.2 ± 12.6%
[2]; Rattus norvegicus, bone degeneration, Aspirin 75 mg/kg/day alone, read-out: Percent Inhibition ± S. E.
  inhibition at 75 mg/kg: 29.5 ± 5.6%
[2]; Rattus norvegicus, bone degeneration, Aspirin 100 mg/kg/day alone, read-out: Percent Inhibition ± S. E.
  inhibition at 100 mg/kg: 28.3 ± 8.2%
[2]; Rattus norvegicus, bone degeneration, Aspirin 150 mg/kg/day alone, read-out: Percent Inhibition ± S. E.
  inhibition at 150 mg/kg: 22.9 ± 3.1%
[2]; Rattus norvegicus, bone degeneration, Aspirin 300 mg/kg/day alone, read-out: Percent Inhibition ± S. E.
  inhibition at 300 mg/kg: 59.9 ± 5.4%
[2]; Rattus norvegicus
  ED50: 382 mg/kg
[2]; bone degeneration, Aspirin 25 mg/kg/day alone
  Percent Inhibition ± S. E.: 20.1 ± 5.2%
[1]; Aspirin given in combination with tolmetin
  dose of Aspirin required to suppress the tolmetin ED50 by 50 percent: 83.6 (60.5 - 101) mg/kg/day
[1]; Rattus norvegicus, 672 h, Aspirin 25 mg/kg/day alone, Day 28, read-out: Percent Inhibition ± S.E. (Day 28)
  inhibition at 25 mg/kg: 16.4 ± 11.4%
[1]; [5]
  inhibition at 75 mg/kg: 39.6 ± 3.6%
  inhibition at 150 mg/kg: 34.2 ± 6%
  inhibition at 300 mg/kg: 66.2 ± 6.3%
[1]; Rattus norvegicus, 672 h, Aspirin 100 mg/kg/day alone, Day 28, read-out: Percent Inhibition ± S.E. (Day 28)
  inhibition at 100 mg/kg: 28.3 ± 8.2%
[1]; [6]
  inhibition at 75 mg/kg: 4.1 ± 14.4%
  inhibition at 150 mg/kg: 33.2 ± 7.6%
  inhibition at 300 mg/kg: 28.9 ± 9.4%
[1]; Rattus norvegicus, aspirin alone, data from several similar experiments pooled, read-out: ED50 and its 95 percent C.L.
  ED50: 322 mg/kg
